The numbers were not newly measured in patent US11986479B2 (priority 2022, dated 2024), which cites them from elsewhere.

Each structure is given as a SMILES string. Read-outs that look alike come from different tables or passages of the source.

Assay in data set [1]: not given
The source holds these as a separate data set.

Assay in data set [2]: not given
The source holds these as a separate data set.

Take `CCN(CC)C(=S)SSC(=S)N(CC)CC` [Disulfiram, bis(diethylthiocarbamoyl) disulfide]: the “diarrhea in list of adverse reactions” value (in vivo) is on record as “not mentioned”. In data set [1] (alcohol), the soluble in alcohol entry is on record as “about 3.8 g in 100 mL”. The soluble in water entry in data set [1] (water) is on record as “about 20 mg in 100 mL”.
Turning to `Cn1cnc([N+](=O)[O-])c1Sc1ncnc2nc[nH]c12` [Azathoprine, 1H-Purine, 6-[(1-methyl-4-nitro-1H-imidazol-5-yl)thio]-], in data set [2] (cysteine, glutathione, hydrogen sulfide), the “stability in the presence of sulfhydryl compounds” value is “Conversion to mercaptopurine also occurs”. Further, the stability in solution entry in data set [2] (excess sodium hydroxide (0.1N), especially on warming) is “hydrolysis to mercaptopurine occurs”; in data set [2] (neutral or acid pH) it was “stable”. In data set [1] (solutions of alkali hydroxides / one molar equivalent of alkali), the solubility in alkali entry was “may be dissolved”. Further, the solubility in water entry in data set [1] (water) is recorded as “insoluble”.
Turning to `Sc1ncnc2nc[nH]c12` [Mercaptopurine, 6H-purine-6-thione, 1,7-dihydro-, monohydrate], the “patients who experienced diarrhea” value (leukemia patients) is reported as 9%. In addition, in data set [1] (ether), the solubility in ether entry was “practically insoluble”.
For the compound `C[C@@H]1C[C@H]2[C@@H]3CCC4=CC(=O)C=C[C@]4(C)[C@@]3(F)[C@@H](O)C[C@]2(C)[C@@]1(O)C(=O)CO` [Dexamethasone, 9-fluoro-11β,17,21-trihydroxy-16α-methylpregna-1,4-diene-3,20-dione], the stability in air result in data set [2] (air) is listed as “stable”. The solubility in water result in data set [1] (water) was “practically insoluble”.
